According to patent publication US4775692A, “2,5,6,7-tetranor-4,8-inter-m-phenylene PGI2 derivatives” (Toray Industries, Inc., priority 1986, dated 1988):
In brackets after ≈: the same amount, converted by molar mass. Like-named read-outs stand apart in the source and are kept apart here.

Key:
corpus of stomach = test: Gastric cytoprotection effect (lesion length / ulcer index after oral 0.2N NaOH); assay type: in vivo; details: 1 h, 30 min before oral 0.2N NaOH, lesion measured one hour later, read-out: Gastric cytoprotection effect ED50 (dose reducing the sore to 50% of control)
Description: Gastric cytoprotection effect
Gastric cytoprotection effect was studied according to the method by A. Robert (Gastroenterology, 77(3), 443, (1979)). Thirty min. after oral administration of the compound according to the invention, 0.2N NaOH was orally applied to the animals.
One hour later, the animals were killed under anesthesia by chloroform. The stomach was removed and fixed in a solution of 5% formalin. After fixation, the stomach was cut along the greater curvature. A total length of the lesion appearing on the corpus of stomach was then measured and served as an ulcer index.
The dose of the compound which may reduce the sore to 50% of that of the control was designated as ED50.
The gastric cytoprotection effects of the compounds according to the invention, which is thus represented by ED50, are summarized in Table 1.

gastric acid secretion [1] = test: Inhibiting effect of gastric acid secretion, pylorus-ligated rat (Shay); assay type: in vivo; details: pylorus ligation, injected into duodenum, 5 hours
Protocol: (§1) Inhibiting effect of gastric acid secretion
Under anesthesia by ether, the abdomen of the rat was incised in its median and a pylorus was ligated with silk thread according to Shay (Gastroenterology 5, 43 (1945)). Simultaneously, the compound was injected into a duodenum of the rat and then the incision was closed.
Five hours later, the median-incision of the abdomen was again performed and the esophargus was ligated and then the whole stomach was removed.
The stomach was cut along a greater curvature and the contents thereof was transferred into a graduated centrifuge tube. After centrifugation at 3,000 rpm for 10 min., a volume of a gastric juice was measured and a part of its supernatant was titrated to pH 7 with 0.1N NaOH using a pH-stat (Radio meter).
The mean dose of the compounds which may reduce the volume of gastric juice (ml) and acidity (mEq/ml) of a group of five animals to 50% of that of the controls were designated respectively as ED50.

gastric acid secretion [2] = test: Inhibiting effect of gastric acid secretion, perfused stomach, pentagastrin-stimulated (Ghosh & Schild); assay type: in vivo, male SD rat; details: urethane-anesthetized SD rat, pentagastrin 0.05 μg/kg/min, injected through femoral vein; ratio of area index to that of PGE2
Protocol: as §1
A male SD rat was incised in the abdomen under anesthesia by urethane and the lumen of a stomach was perfused with a physiolosical saline solution through a double-cannula inserted into a lumen of the stomach. A pH of a draining gastric acid was monitored using a pH-meter (M. Ghosh, H. Schild, Br. J. Pharmacol. 13, 54 (1958)). The secretion of gastric acid was stimulated by a continuous infusion of the pentagastrin at a rate of 0.05 μg/kg/min. When the pH of gastric acid became stable value of about 4, the compound was injected through a femoral vein. As an index of the inhibiting effect of gastric acid secretion by the compound was calculated from the area surrounded by the curve drawn by the time course of the pH of gastric acid, from the point increase by the injection of the compound and to the point it came back to baseline. The index thus obtained was compared to that of PGE2 and a ratio therebetween was shown in Table 3, as a relative effect of the compound.

platelet aggregation = test: Inhibiting effect of platelet aggregation (ADP-induced, human platelet-rich plasma); assay type: cell-based; details: human PRP, compound added one minute before ADP
Protocol: Inhibiting effect of platelet aggregation
The blood taken from a human median cubital vein was centrifuged at 800 rpm for 10 min. and a supernatant thereof was used as a platelet-rich plasma (PRP). An aliquot of PRP thus obtained was put into a small tube, to which […] (ADP) was added to induce platelet aggregation. The extent of aggregation was determined by detecting a change in turbidity of the aliquot by an apparatus for measuring platelet aggregation (Rika-Denki, Tokyo). The compound was added one minute before the addition of ADP. The concentration of the compound which may reduce the platelet aggregation, 50% of the control was designated as IC50.

[3] = test system: blood pressure of the carotid; test: Hypotensive effect (carotid blood pressure, anesthetized rat); assay type: in vivo; details: chloralose-anesthetized Wistar male rat, injected via catheter connected to femoral artery; read-out: Hypotensive effect ED25 (dose reducing blood pressure by 25 mmHg)
Protocol: A catheter was inserted to a carotid of the Wistar male rat under chloralose anesthesia. Another end of the catheter was connected to a polygraph with a pressure-transducer to detect a blood pressure of the carotid. The compound was injected via catheter connected to a femoral artery. The dose of the compound which may reduce the blood pressure in an amount of 25 mmHg was designated as ED25.

[4] = acidity (mEq/ml) to 50% of controls, read-out: Inhibiting effect of gastric acid secretion ED50, Acidity
[5] = volume (ml) to 50% of controls, read-out: Inhibiting effect of gastric acid secretion ED50, Volume of the gastric juice

Structure (SMILES) | ED50 (corpus of stomach) | ED50 (gastric acid secretion [1]; [4]) | ED50 (gastric acid secretion [1]; [5]) | Inhibiting effect of gastric acid secretion, Relative effect (PGE2 = 1) (gastric acid secretion [2]) | IC50 (platelet aggregation) | ED (25 mmHg) [3]
CCCCC[C@H](O)/C=C/[C@@H]1[C@H]2c3cccc(OCC(=O)O)c3O[C@H]2C[C@H]1O (relative stereo) [Compound 156, 2,5,6,7-Tetranor-4-oxa-4,8-inter-m-phenylene PGI2] | 11.3 µg/kg | 2330 µg/kg | 330 µg/kg | 39 | 0.56 ng/mL (≈ 1.49 nM) | 0.46 µg/kg
CCC(C)(C)[C@H](O)/C=C/[C@@H]1[C@H]2c3cccc(OCC(=O)O)c3O[C@H]2C[C@H]1O (relative stereo) [Compound 172, 16,16-Dimethyl-2,5,6,7,19,20-hexanor-4-oxa-4,8-inter-m-phenylene PGI2] | 4.6 µg/kg |  |  | 19 | 2.1 ng/mL (≈ 5.58 nM) | 0.72 µg/kg
CCCCCC(C)(C)[C@H](O)/C=C/[C@@H]1[C@H]2c3cccc(OCC(=O)O)c3O[C@H]2C[C@H]1O (relative stereo) [Compound 184, 16,16-Dimethyl-20a-homo-2,5,6,7-tetranor-4-oxa-4,8-inter-m-phenylene PGI2] | 2.3 µg/kg |  |  | 85 | 24 ng/mL (≈ 57.3 nM) | 0.5 µg/kg
CCCCCCC(C)(C)[C@H](O)/C=C/[C@@H]1[C@H]2c3cccc(OCC(=O)O)c3O[C@H]2C[C@H]1O (relative stereo) [Compound 188, 16,16-Dimethyl-20a,20b-dihomo-2,5,6,7-tetranor-4-oxa-4,8-inter-m-phenylene PGI2] | 2.8 µg/kg |  |  | 23 | 6.9 ng/mL (≈ 16 nM) | 1.5 µg/kg
CCCCCCCC(C)(C)[C@H](O)/C=C/[C@@H]1[C@H]2c3cccc(OCC(=O)O)c3O[C@H]2C[C@H]1O (relative stereo) [Compound 192, 16,16-Dimethyl-20a,20b,20c-trihomo-2,5,6,7-tetranor-4-oxa-4,8-inter-m-phenylene PGI2] | 3.9 µg/kg |  |  | 0.7 | 8 ng/mL (≈ 17.9 nM) | 0.59 µg/kg
CCCC(C)(C)C[C@H](O)/C=C/[C@@H]1[C@H]2c3cccc(OCC(=O)O)c3O[C@H]2C[C@H]1O (relative stereo) [Compound 200, 17,17-Dimethyl-2,5,6,7-tetranor-4-oxa-4,8-inter-m-phenylene PGI2] | 3.6 µg/kg |  |  | 3.0 | 0.37 ng/mL (≈ 0.915 nM) | 0.16 µg/kg
CCCCC(C)[C@H](O)/C=C/[C@@H]1[C@H]2c3cccc(OCC(=O)O)c3O[C@H]2C[C@H]1O (relative stereo) [Compound 208, 16-Methyl-2,5,6,7-tetranor-4-oxa-4,8-inter-m-phenylene PGI2] | 0.92 µg/kg | 270 µg/kg | 140 µg/kg | 45 | 0.47 ng/mL (≈ 1.2 nM) | 0.074 µg/kg
CCCCCC(C)(O)/C=C/[C@@H]1[C@H]2c3cccc(OCC(=O)O)c3O[C@H]2C[C@H]1O (relative stereo) [Compound 210, 15-Methyl-2,5,6,7-tetranor-4-oxa-4,8-inter-m-phenylene PGI2] | 109 µg/kg |  |  | 13 | 30 ng/mL (≈ 76.8 nM) | 0.89 µg/kg
O=C(O)COc1cccc2c1O[C@H]1C[C@@H](O)[C@H](/C=C/[C@@H](O)C3CCCC3)[C@@H]21 (relative stereo) [Compound 230, 15-cyclopentyl-2,5,6,7,16,17,18,19,20-nonanor-4-oxa-4,8-inter-m-phenylene PGI2] | 9.74 µg/kg | 880 µg/kg | 330 µg/kg | 1.4 | 0.19 ng/mL (≈ 0.507 nM) | 0.094 µg/kg
O=C(O)COc1cccc2c1O[C@H]1C[C@@H](O)[C@H](/C=C/[C@@H](O)C3CCCCC3)[C@@H]21 (relative stereo) [Compound 234, 15-cyclohexyl-2,5,6,7,16,17,18,19,20-nonanor-4-oxa-4,8-inter-m-phenylene PGI2] | 12.4 µg/kg | 880 µg/kg | 86 µg/kg | 4.1 | 0.26 ng/mL (≈ 0.669 nM) | 0.34 µg/kg
O=C(O)COc1cccc2c1O[C@H]1C[C@@H](O)[C@H](/C=C/[C@@H](O)CC3CCCC3)[C@@H]21 (relative stereo) [Compound 238, 16-cyclopentyl-2,5,6,7,17,18,19,20-octanor-4-oxa-4,8-inter-m-phenylene PGI2] | 4.9 µg/kg |  |  | 11 | 0.24 ng/mL (≈ 0.618 nM) | 0.14 µg/kg
O=C(O)COc1cccc2c1O[C@H]1C[C@@H](O)[C@H](/C=C/[C@@H](O)CC3CCCCC3)[C@@H]21 (relative stereo) [Compound 241, 16-cyclohexyl-2,5,6,7,17,18,19,20-octanor-4-oxa-4,8-inter-m-phenylene PGI2] | 8.17 µg/kg | 2800 µg/kg | 1800 µg/kg | 2.1 | 12 ng/mL (≈ 29.8 nM) | 0.083 µg/kg
Cc1ccccc1[C@H](O)/C=C/[C@@H]1[C@H]2c3cccc(OCC(=O)O)c3O[C@H]2C[C@H]1O (relative stereo) [Compound 266, 15-(o-methylphenyl)-2,5,6,7,16,17,18,19,20-nonanor-4-oxa-4,8-inter-m-phenylene PGI2] | 31.2 µg/kg |  |  | 7.2 | 2.3 ng/mL (≈ 5.8 nM) | 0.32 µg/kg
Cc1ccc([C@H](O)/C=C/[C@@H]2[C@H]3c4cccc(OCC(=O)O)c4O[C@H]3C[C@H]2O)cc1 (relative stereo) [Compound 270, 15-(p-methylphenyl)-2,5,6,7,16,17,18,19,20-nonanor-4-oxa-4,8-inter-m-phenylene PGI2] | 25.5 µg/kg |  |  | 16 | 1.6 ng/mL (≈ 4.04 nM) | 0.12 µg/kg
CCOCC(C)(C)[C@H](O)/C=C/[C@@H]1[C@H]2c3cccc(OCC(=O)O)c3O[C@H]2C[C@H]1O (relative stereo) [Compound 305, 16,16-Dimethyl-2,5,6,7-tetranor-4,18-dioxa-4,8-inter-m-phenylene PGI2] | 13.1 µg/kg |  |  | 99 | 90 ng/mL (≈ 221 nM) | 0.55 µg/kg
